Literature values, collected in patent publication US20090148532A1, “Preparation of controlled release skeletal muscle relaxant dosage forms” (priority 2007, published 2009).

Details: after oral administration

Elimination half-life: one to three
SMILES: CN(C)CCC=C1c2ccccc2C=Cc2ccccc21 [Cyclobenzaprine]
